Molecular target: NR2B-subtype NMDA receptors (Rattus norvegicus (Rat), UniProt P35439+Q00960)
Test: Radioligand binding assay (3H Ro 25-6981 competition, forebrain membranes)
Conditions: 3H Ro 25-6981 (4 nM), read-out: NR2B Binding Ki
In short: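 Rat forebrain membranes competed against [3H]Ro 25-6981 for 1 hr at room temperature, then filtered onto PEI-treated GF/B plates and counted by scintillation. CPM converted to % inhibition, concentration-response curves fitted, Ki derived from at least two experiments.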

Chain of NR2B-subtype NMDA receptors (Q00960 27-1482, other chains not shown): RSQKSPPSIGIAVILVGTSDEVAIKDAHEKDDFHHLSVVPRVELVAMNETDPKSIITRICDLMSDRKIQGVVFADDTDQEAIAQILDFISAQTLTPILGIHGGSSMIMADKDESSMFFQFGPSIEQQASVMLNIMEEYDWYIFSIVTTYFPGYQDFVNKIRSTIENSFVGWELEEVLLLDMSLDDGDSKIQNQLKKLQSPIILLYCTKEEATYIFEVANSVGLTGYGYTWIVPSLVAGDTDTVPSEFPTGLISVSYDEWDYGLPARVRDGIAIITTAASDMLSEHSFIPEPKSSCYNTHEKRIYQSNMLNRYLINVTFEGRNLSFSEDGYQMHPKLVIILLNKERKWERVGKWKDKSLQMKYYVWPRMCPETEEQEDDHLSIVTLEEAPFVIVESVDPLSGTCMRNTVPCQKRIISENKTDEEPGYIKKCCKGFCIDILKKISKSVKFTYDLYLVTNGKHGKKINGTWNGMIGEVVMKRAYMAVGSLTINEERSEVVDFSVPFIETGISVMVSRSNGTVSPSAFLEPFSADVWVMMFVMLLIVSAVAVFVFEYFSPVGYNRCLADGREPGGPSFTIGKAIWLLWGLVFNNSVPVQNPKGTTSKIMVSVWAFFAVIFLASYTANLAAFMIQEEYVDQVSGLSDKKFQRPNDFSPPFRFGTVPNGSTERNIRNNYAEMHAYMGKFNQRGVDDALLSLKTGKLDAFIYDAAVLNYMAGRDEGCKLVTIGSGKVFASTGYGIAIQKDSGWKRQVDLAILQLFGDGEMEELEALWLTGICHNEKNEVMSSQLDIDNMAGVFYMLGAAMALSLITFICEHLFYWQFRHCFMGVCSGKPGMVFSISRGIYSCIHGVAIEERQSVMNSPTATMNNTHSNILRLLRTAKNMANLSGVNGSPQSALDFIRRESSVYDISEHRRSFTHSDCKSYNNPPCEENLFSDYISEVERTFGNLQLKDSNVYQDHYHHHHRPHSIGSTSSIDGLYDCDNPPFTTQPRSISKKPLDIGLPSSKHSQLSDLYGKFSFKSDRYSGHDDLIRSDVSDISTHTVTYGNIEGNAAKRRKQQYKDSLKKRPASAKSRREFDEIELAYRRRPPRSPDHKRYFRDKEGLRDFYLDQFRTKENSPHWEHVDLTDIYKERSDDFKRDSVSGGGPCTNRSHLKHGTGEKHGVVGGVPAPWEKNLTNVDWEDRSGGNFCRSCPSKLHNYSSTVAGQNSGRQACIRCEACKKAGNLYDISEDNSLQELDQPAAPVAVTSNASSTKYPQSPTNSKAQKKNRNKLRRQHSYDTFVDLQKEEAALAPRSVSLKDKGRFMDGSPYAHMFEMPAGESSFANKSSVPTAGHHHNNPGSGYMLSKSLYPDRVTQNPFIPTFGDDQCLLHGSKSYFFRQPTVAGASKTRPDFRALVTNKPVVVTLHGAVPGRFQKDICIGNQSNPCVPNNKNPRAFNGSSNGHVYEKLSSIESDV

| SMILES | Ki |
| --- | --- |
| O=C1[C@@H](N2CC[C@@H](c3ccc(O)c(F)c3)[C@H](F)C2)CCN1Cc1ccc(C(F)F)cc1 [Example 117, P-1, (S)-1-(4-(difluoromethyl)benzyl)-3-((3S,4S)-3-fluoro-4-(3-fluoro-4-hydroxyphenyl)piperidin-1-yl)pyrrolidin-2-one] | 79 nM |
| O=C1C(N2CC[C@H](c3ccc(O)cc3)[C@@H](F)C2)CCN1Cc1ccc(OC(F)F)cc1 (stereo partly drawn) [Example 78, 1-(4-(Difluoromethoxy)benzyl)-3-((3R,4R)-3-fluoro-4-(4-hydroxyphenyl)piperidin-1-yl)pyrrolidin-2-one] | 190 nM |
| Cc1ccc(CN2CC[C@@H](N3CC[C@@H](c4ccc(O)c(F)c4)[C@H](F)C3)C2=O)cc1 [Example 115, (R)-3-((3S,4S)-3-fluoro-4-(3-fluoro-4-hydroxyphenyl)piperidin-1-yl)-1-(4-methylbenzyl)pyrrolidin-2-one] | 2.7 nM |
| Cc1ccc(N2CC[C@@H](N3CC[C@H](c4ccc(O)cc4)[C@@H](F)C3)C2=O)cc1F [Example 49, P-2, (R)-3-((3R,4R)-3-fluoro-4-(4-hydroxyphenyl)piperidin-1-yl)-1-(3-fluoro-4-methylphenyl)pyrrolidin-2-one] | 73 nM |
| O=C1[C@H](N2CC[C@@H](c3ccc(O)cc3)[C@H](F)C2)CCN1Cc1ccc(Cl)cc1 [Example 65, (R)-1-(4-Chlorobenzyl)-3-((3S,4S)-3-fluoro-4-(4-hydroxyphenyl)piperidin-1-yl)pyrrolidin-2-one] | 3.6 nM |
| O=C1C(N2CCCC(c3ccc(O)cc3)CC2)CCN1Cc1ccc(F)cc1 (centres unmarked) [Example 35, 1-(4-Fluorobenzyl)-3-(4-(4-hydroxyphenyl)azepan-1-yl)pyrrolidin-2-one] | 17 nM |
| O=C1C(N2CCCC(c3ccc(O)cc3)C2)CCN1Cc1ccc(F)cc1 (centres unmarked) [Example 4, 1-(4-Fluorobenzyl)-3-(3-(4-hydroxyphenyl)piperidin-1-yl)pyrrolidin-2-one] | ≥ 5000 nM |
| O=C1C(N2CC[C@@H](c3ccc(O)cc3)[C@H](F)C2)CCN1Cc1ccc(F)c(Cl)c1 (stereo partly drawn) [Example 73, 1-(3-Chloro-4-fluorobenzyl)-3-((3S,4S)-3-fluoro-4-(4-hydroxyphenyl)piperidin-1-yl)pyrrolidin-2-one] | 330 nM |
| O=C1[C@@H](N2CC[C@@H](c3ccc(O)cc3)[C@H](F)C2)CCN1Cc1ccc(Cl)c(F)c1 [Example 66, (S)-1-(4-Chloro-3-fluorobenzyl)-3-((3S,4S)-3-fluoro-4-(4-hydroxyphenyl)piperidin-1-yl)pyrrolidin-2-one] | 1500 nM |
| O=C1[C@@H](N2CC[C@H](c3ccc(O)cc3)[C@@H](F)C2)CCN1Cc1ccccc1 [Example 74, (S)-1-Benzyl-3-((3R,4R)-3-fluoro-4-(4-hydroxyphenyl)piperidin-1-yl)pyrrolidin-2-one] | 680 nM |
| O=C1C(N2CCC(c3ccc(O)cc3)CC2)CCCN1Cc1ccccc1 (single isomer, unassigned) [Example 41b, 1′-Benzyl-4-(4-hydroxyphenyl)-[1,3′-bipiperidin]-2′-one] | 200 nM |
| O=C1C(N2CCC(c3ccc(O)cc3)CC2)CCN1C1CCc2ccccc21 (centres unmarked) [Example 34, 1-(2,3-Dihydro-1H-inden-1-yl)-3-(4-(4-hydroxyphenyl)piperidin-1-yl)pyrrolidin-2-one] | 670 nM |
| Cc1ccc(CN2CC[C@@H](N3CC(c4ccc(O)cc4)C3)C2=O)cc1F [Example 21a, (R)-1-(3-Fluoro-4-methylbenzyl)-3-(3-(4-hydroxyphenyl)azetidin-1-yl)pyrrolidin-2-one] | 37 nM |
| O=C1[C@H](N2CCC(c3ccc(O)cc3)C(F)(F)C2)CCN1Cc1ccc(Cl)c(F)c1 (single isomer, unassigned) [Example 107, P-2] | 7.7 nM |
| O=C1C(N2CC[C@H](c3ccc(O)cc3)[C@@H](F)C2)CCN1Cc1ccc(Cl)c(Cl)c1 (stereo partly drawn) [Example 86, 1-(3,4-Dichlorobenzyl)-3-((3R,4R)-3-fluoro-4-(4-hydroxyphenyl)-piperidin-1-yl)pyrrolidin-2-one] | 78 nM |
| C[C@@H](c1ccc(F)cc1)N1CC[C@H](N2CC[C@H](c3ccc(O)cc3)[C@@H](F)C2)C1=O [Example 50, P-1, (S)-3-((3R,4R)-3-Fluoro-4-(4-hydroxyphenyl)piperidin-1-yl)-1-((S)-1-(4-fluorophenyl)-ethyl)pyrrolidin-2-one] | ≥ 5000 nM |
| Cc1ccc(CN2CCCC(N3CCC(c4ccc(O)cc4)CC3)C2=O)cc1 (centres unmarked) [Example 38, 4-(4-Hydroxyphenyl)-1′-(4-methylbenzyl)-[1,3′-bipiperidin]-2′-one] | 150 nM |
| Cc1cccc(CN2CCC(N3CC[C@@H](c4ccc(O)cc4)[C@H](F)C3)C2=O)c1 (stereo partly drawn) [Example 60, 3-((3S,4S)-3-Fluoro-4-(4-hydroxyphenyl)piperidin-1-yl)-1-(3-methylbenzyl)pyrrolidin-2-one] | 110 nM |
| O=C1[C@@H](N2CCC(c3ccc(O)cc3)CC2)CCN1Cc1ccccc1 [Example 13a, (S)-1-Benzyl-3-(4-(4-hydroxyphenyl)piperidin-1-yl)pyrrolidin-2-one] | 41 nM |
| Cc1ccc(CN2CCC(N3CCCC(c4ccc(O)cc4)CC3)C2=O)cc1 (centres unmarked) [Example 36, 3-(4-(4-Hydroxyphenyl)azepan-1-yl)-1-(4-methylbenzyl)-pyrrolidin-2-one] | 34 nM |
| O=C1C(N2CC(c3ccc(O)cc3)C2)CCN1Cc1ccc(F)c(F)c1 (centres unmarked) [Example 10, 1-(3,4-Difluorobenzyl)-3-(3-(4-hydroxyphenyl)azetidin-1-yl)pyrrolidin-2-one] | 1020 nM |
| O=C1[C@@H](N2CCC(c3ccc(O)cc3)CC2)CCN1Cc1ccc(F)c(F)c1 [Example 6a, (S)-1-(3,4-Difluorobenzyl)-3-(4-(4-hydroxyphenyl)piperidin-1-yl)pyrrolidin-2-one] | 850 nM |
| O=C1[C@H](N2CC[C@@H](c3ccc(O)c(F)c3)[C@H](F)C2)CCN1Cc1ccc(Cl)cc1 [Example 116, (R)-1-(4-chlorobenzyl)-3-((3S,4S)-3-fluoro-4-(3-fluoro-4-hydroxyphenyl)piperidin-1-yl)pyrrolidin-2-one] | 2 nM |
| O=C1[C@H](N2CCC(c3ccc(O)cc3)CC2)CCN1Cc1ccc(F)cc1 [Example 2b, (R)-1-(4-Fluorobenzyl)-3-(4-(4-hydroxyphenyl)piperidin-1-yl)pyrrolidin-2-one] | 1.4 nM |
| Cc1ccc(CN2CC[C@@H](N3CC(c4ccc(O)cc4)C3)C2=O)cc1 [Example 28b, (R)-3-(3-(4-Hydroxyphenyl)azetidin-1-yl)-1-(4-methylbenzyl)-pyrrolidin-2-one] | 10 nM |
| O=C1C(N2CCC(c3ccc(O)cc3)C(O)C2)CCN1Cc1ccc(F)cc1 (centres unmarked) [Example 8, 1-(4-Fluorobenzyl)-3-(3-hydroxy-4-(4-hydroxyphenyl)piperidin-1-yl)pyrrolidin-2-one] | 420 nM |
| Cc1ccc(CN2CCC(N3CCC(c4ccc(O)cc4)CC3)C2=O)cc1F (centres unmarked) [Example 19, 1-(3-Fluoro-4-methylbenzyl)-3-(4-(4-hydroxyphenyl)piperidin-1-yl)pyrrolidin-2-one] | 3.9 nM |
| C[C@@H](c1ccccc1)N1CC[C@@H](N2CCC(c3ccc(O)cc3)CC2)C1=O [Example 33b, (R)-3-(4-(4-Hydroxyphenyl)piperidin-1-yl)-1-((S)-1-phenylethyl)pyrrolidin-2-one] | 44 nM |
| Cc1ccc(CN2CCC(N3CCC(c4ccc(O)cc4)CC3)C2=O)cc1C (centres unmarked) [Example 26, 1-(3,4-Dimethylbenzyl)-3-(4-(4-hydroxyphenyl)piperidin-1-yl)pyrrolidin-2-one] | 31 nM |
